Source: ChEMBL document CHEMBL1147358, “A New Brominated Indole-3-carbaldehyde from the Marine Bryozoan Zoobotryon verticillatum” (J Nat Prod, 1993)
Calls of active or inactive are those of the source. The calls are words filed in the database; no cut-off is given here.

Key:
Echinoidea [1] = experiment: Inhibition of sea urchin egg division at 20 ug/ml; format: functional
Echinoidea [2] = experiment: Inhibition of sea urchin egg division at 5 ug/ml; format: functional
Echinoidea [3] = experiment: Effect on fertilized sea urchin egg division assessed as delaying of metamorphosis at 5 ug/ml; format: functional
Pluteus = experiment: Decrease in mobility of Pluteus larvae at 10 ug/ml; format: functional, organism-based

Structure (SMILES) | Activity (Echinoidea [1]) | Activity (Echinoidea [2]) | Activity (Echinoidea [3]) | Activity (Pluteus)
CN(C)Cc1c(Br)n(C)c2cc(Br)c(Br)cc12 | Active | Active | – | –
Cn1c(Br)c(C=O)c2cc(Br)c(Br)cc21 | – | – | Active | Active
Cn1c(Br)c(C[N+](C)(C)[O-])c2cc(Br)c(Br)cc21 | Active | Active | – | –
